Type in all cases: cell-based
The test system of assay [1] is MCF7 (Mammary Gland, Adenocarcinoma). In words: Cell viability analysis (WST-1), MCF7. Particulars: Homo sapiens, WST-1, OD450 nm, read-out: survival rate (viability) of cancer cells, MCF7.
Assay [2] deals with LoVo (Colorectal Adenocarcinoma). In words: Cell viability analysis (WST-1), LoVo. The note with it: Homo sapiens, LoVo, WST-1, OD450 nm, read-out: survival rate (viability) of cancer cells, LoVo.
The subject of assay [3] is HL-60 (Acute Promyelocytic Leukemia). In words: Cell viability analysis (WST-1), HL-60. Particulars: Homo sapiens, HL-60; Table 3; drug 10 μM, 72 hours, WST-1, OD450 nm; read-out: survival rate (viability) of cancer cells, HL-60.
Assay [4] concerns HepG2 (Hepatocellular Carcinoma). Description: Cell viability analysis (WST-1), HepG2. The note with it: Homo sapiens, WST-1, OD450 nm, read-out: survival rate (viability) of cancer cells, HepG2.
Assay [5] deals with H1650 (Lung Adenocarcinoma). Description: Cell viability analysis (WST-1), H1650. The note with it: Homo sapiens, WST-1, OD450 nm, read-out: survival rate (viability) of cancer cells, H1650.
The next assay relates to cancer cell lines. In words: Growth inhibitory effects on the panel of cancer cell lines. Particulars: drug 10 μM, 72 hours; for Numbers of inhibitory effect on cancer cell line: count of cancer cell lines inhibited; for inhibition effect on different cancer cell lines (in words): WST-1.
Assay [6] has as its system HCT116 (Colorectal Carcinoma). Description: Cell viability analysis (WST-1), HCT116. Particulars: Homo sapiens, WST-1, OD450 nm, read-out: survival rate (viability) of cancer cells, HCT116 (WT).
Assay [7] deals with A375 (Amelanotic Melanoma). Description: Cell viability analysis (WST-1), A375. Particulars: Homo sapiens, WST-1, OD450 nm, lower viability = better inhibition, read-out: survival rate (viability) of cancer cells, A375.
Assay [8] concerns TSGH-8301 (Urinary Bladder Carcinoma). In words: Cell viability analysis (WST-1), TSGH-8301. The note with it: WST-1, OD450 nm, read-out: survival rate (viability) of cancer cells, TSGH.
Assay [9] relates to MKN-45 (Gastric Adenocarcinoma). Description: Cell viability analysis (WST-1), MKN-45. The note with it: Homo sapiens, WST-1, OD450 nm, read-out: survival rate (viability) of cancer cells, MKN-45.
Assay [10] has as its system HeLa (Cervix Adenocarcinoma). In words: Cell viability analysis (WST-1), HeLa. Particulars: Homo sapiens, HeLa, WST-1, OD450 nm, read-out: survival rate (viability) of cancer cells, HeLa.
For assay [11], the system named is PC3 (Prostate Adenocarcinoma). In words: Cell viability analysis (WST-1), PC3. The note with it: WST-1, OD450 nm, read-out: survival rate (viability) of cancer cells, PC3.
In assay [12] the test system is AGS (Gastric Adenocarcinoma). In words: Cell viability analysis (WST-1), AGS. The note with it: WST-1, OD450 nm, read-out: survival rate (viability) of cancer cells, AGS.
The subject of assay [13] is A549 (Lung Adenocarcinoma). In words: Cell viability analysis (WST-1), A549. Particulars: Homo sapiens, WST-1, OD450 nm, read-out: survival rate (viability) of cancer cells, A549.
[14] abbreviates: MCF7, 72 h, Table 3, drug 10 μM.
Setting [15] is: HepG2, 72 h, Table 3, drug 10 μM.
The mark [16] stands for this setting: NCI-H1650, 72 h, Table 3, drug 10 μM.
The mark [17] stands for this setting: HCT-116, 72 h, Table 3, drug 10 μM.
The mark [18] stands for this setting: A-375, 72 h, Table 3, drug 10 μM.
Setting [19] is: MKN-45, 72 h, Table 3, drug 10 μM.
The mark [20] stands for this setting: A549, 72 h, Table 3, drug 10 μM.

Counter-ions that a name gives are not always drawn. Like-named read-outs stand apart in the source and are kept apart here.

Consider `CCCNCC(O)COc1ccccc1C(=O)CCc1ccccc1` (centres unmarked) [Propafenone (Rytmonorm), Propafenone], for which the viability at 10 µM is 120% in assay [1] (setting [14]); 105% in [2] (72 h, Table 3, drug 10 μM); 113% in assay [3]; 86% in [4] (setting [15]); 92.5% in assay [5] (setting [16]); 109% in [6] (setting [17]). Besides, the viability at 10 µM in assay [7] (setting [18]) turned out to be 95.8%; in assay [8] (72 h, Table 3, drug 10 μM), 61.1%; in [9] (setting [19]), 84.7%; in assay [10] (72 h, Table 3, drug 10 μM) it was 109%; in [11] (72 h, Table 3, drug 10 μM) it was 104%; in assay [12] (72 h, Table 3, drug 10 μM) it was 79.8%. Also, the viability at 10 µM in assay [13] (setting [20]) amounted to 94.1%. Further, in the assay on cancer cell lines, the “Numbers of inhibitory effect on cancer cell line” value (“Numbers of inhibitory effect” for short) was 0.
With `CCOC(=O)[C@H](CCc1ccccc1)N[C@@H](C)C(=O)N1[C@H](C(=O)O)C[C@@H]2CCC[C@@H]21` [Ramipril (Altace), Ramipril], the viability at 10 µM in assay [1] (setting [14]) amounted to 82.4%; in assay [2] (72 h, Table 3, drug 10 μM), 81.9%; in assay [3] it was 107%; in [4] (setting [15]), 106%; in assay [5] (setting [16]), 135%; in [6] (setting [17]) it was 108%. The viability at 10 µM in [7] (setting [18]) came out at 120%; in [8] (72 h, Table 3, drug 10 μM), 114%; in assay [9] (setting [19]), 84%; in [10] (72 h, Table 3, drug 10 μM), 84.3%; in assay [11] (72 h, Table 3, drug 10 μM) it was 104%; in assay [12] (72 h, Table 3, drug 10 μM) it was 99.8%. The viability at 10 µM in assay [13] (setting [20]) was 99.6%. In the assay with cancer cell lines, the “Numbers of inhibitory effect” value is 0. Moreover, in the assay on cancer cell lines, the “inhibition effect on different cancer cell lines (in words)” value is “significant inhibition effect”.
For the compound `C#CCN[C@@H]1CCc2ccccc21` [Rasagiline mesylate], the viability at 10 µM turned out to be 88.3% in [1] (setting [14]); 94% in assay [2] (72 h, Table 3, drug 10 μM); 105% in assay [3]; 92% in assay [4] (setting [15]); 71.8% in assay [5] (setting [16]); 142% in [6] (setting [17]). Further, the viability at 10 µM in assay [7] (setting [18]) was 76.9%; in [8] (72 h, Table 3, drug 10 μM), 74.2%; in assay [9] (setting [19]), 87.7%; in assay [10] (72 h, Table 3, drug 10 μM), 88.1%; in assay [11] (72 h, Table 3, drug 10 μM), 103%; in [12] (72 h, Table 3, drug 10 μM), 75.8%. In assay [13] (setting [20]), the viability at 10 µM was found to be 91.3%. The “Numbers of inhibitory effect” value with cancer cell lines is 0. Moreover, the “inhibition effect on different cancer cell lines (in words)” value in the assay on cancer cell lines is “significant inhibition effect”.
With `CCN(C)C(=O)Oc1cccc([C@H](C)N(C)C)c1` [Rivastigmine tartrate (Exelon), Rivastigmine tartrate], the viability at 10 µM in assay [1] (MCF7, Table 3, drug 10 μM, 72 hours) was 67.5%; in [2] (Table 3, drug 10 μM, 72 hours), 85.4%; in assay [3], 103%; in assay [4] (HepG2, Table 3, drug 10 μM, 72 hours) it was 93.7%; in assay [5] (NCI-H1650, Table 3, drug 10 μM, 72 hours), 83.6%; in assay [6] (HCT-116, Table 3, drug 10 μM, 72 hours), 118%. In addition, the viability at 10 µM was 76.1% in assay [7] (A-375, Table 3, drug 10 μM, 72 hours); 83.9% in assay [8] (Table 3, drug 10 μM, 72 hours); 93.8% in assay [9] (MKN-45, Table 3, drug 10 μM, 72 hours); 90.1% in assay [10] (Table 3, drug 10 μM, 72 hours); 85.4% in assay [11] (Table 3, drug 10 μM, 72 hours); 63.6% in [12] (Table 3, drug 10 μM, 72 hours). The viability at 10 µM in [13] (A549, Table 3, drug 10 μM, 72 hours) is 65.9%. Also, the “Numbers of inhibitory effect” value with cancer cell lines stood at 0. In the assay on cancer cell lines, the “inhibition effect on different cancer cell lines (in words)” value is recorded as “significant inhibition effect”.
Turning to `CCCSc1nc(N[C@@H]2C[C@H]2c2ccc(F)c(F)c2)c2nnn([C@@H]3C[C@H](OCCO)[C@@H](O)[C@H]3O)c2n1` [Ticagrelor], the viability at 10 µM in assay [1] (setting [14]) was determined as 83.1%; in assay [2] (72 h, Table 3, drug 10 μM), 79.6%; in assay [3] it was 93.7%; in [4] (setting [15]), 94.5%; in [5] (setting [16]), 76%; in [6] (setting [17]), 73.6%. For the same compound, the viability at 10 µM worked out at 60.1% in [7] (setting [18]); 86% in assay [8] (72 h, Table 3, drug 10 μM); 114% in assay [9] (setting [19]); 126% in assay [10] (72 h, Table 3, drug 10 μM); 84.1% in assay [11] (72 h, Table 3, drug 10 μM); 100% in assay [12] (72 h, Table 3, drug 10 μM). Also, in [13] (setting [20]), the viability at 10 µM amounted to 85%. The “Numbers of inhibitory effect” value in the assay with cancer cell lines came out at 0. Moreover, the “inhibition effect on different cancer cell lines (in words)” value with cancer cell lines is listed as “significant inhibition effect”.
Take `Clc1ccccc1CN1CCc2sccc2C1` [Ticlopidine HCl]: the viability at 10 µM in [1] (setting [14]) is 96.8%; in assay [2] (72 h, Table 3, drug 10 μM), 90.5%; in [3], 102%; in [4] (setting [15]) it was 97.4%; in [5] (setting [16]), 61.6%; in assay [6] (setting [17]) it was 71.9%. The viability at 10 µM in assay [7] (setting [18]) amounted to 86.5%; in [8] (72 h, Table 3, drug 10 μM), 112%; in assay [9] (setting [19]) it was 72.7%; in assay [10] (72 h, Table 3, drug 10 μM), 81.9%; in [11] (72 h, Table 3, drug 10 μM), 69.9%; in [12] (72 h, Table 3, drug 10 μM), 77.2%. Moreover, the viability at 10 µM in assay [13] (setting [20]) is 84.9%. For the same compound, the “Numbers of inhibitory effect” value in the assay with cancer cell lines worked out at 0. The “inhibition effect on different cancer cell lines (in words)” value in the assay with cancer cell lines is “significant inhibition effect”.
On to `NS(=O)(=O)c1cc2c(cc1Cl)NC(C(Cl)Cl)NS2(=O)=O` (centres unmarked) [Trichlormethiazide (Achletin), Trichlormethiazide], for which the viability at 10 µM worked out at 64.2% in [1] (setting [14]); 107% in [2] (72 h, Table 3, drug 10 μM); 102% in assay [3]; 95.1% in [4] (setting [15]); 76.7% in assay [5] (setting [16]); 112% in assay [6] (setting [17]). For the same compound, the viability at 10 µM in assay [7] (setting [18]) came out at 128%; in assay [8] (72 h, Table 3, drug 10 μM) it was 95.6%; in assay [9] (setting [19]) it was 71%; in [10] (72 h, Table 3, drug 10 μM), 85.7%; in assay [11] (72 h, Table 3, drug 10 μM), 122%; in [12] (72 h, Table 3, drug 10 μM), 79.3%. Besides, the viability at 10 µM in [13] (setting [20]) turned out to be 106%. Moreover, in the assay with cancer cell lines, the “Numbers of inhibitory effect” value turned out to be 0. For the same compound, the “inhibition effect on different cancer cell lines (in words)” value in the assay on cancer cell lines is “significant inhibition effect”.

Source of the values: patent publication US20170304388A1, “NEW INDICATION OF CARDIOVASCULAR DRUGS FOR PREPARATION OF CANCER INHIBITION PHARMACEUTICAL COMPOSITION” (LAUNX BIOMEDICAL CO., LTD., priority 2014, published 2017).
